According to patent US6589942B1, “Chitosan metal complexes and method for controlling microbial growth on plants using same” (priority 1998, dated 2003):

Legend:
Type in all cases: in vivo
[1] = test system: cucumber plants; assay: toxicity to cucumber plants (Example 3)
[2] = test system: potato leaves; assay: toxicity to potato leaves (Example 2)
[3] = test system: cucumber plants; assay: toxicity to cucumber plants (Example 5)
Source text: Controlling the Gray mold disease caused by Botrytis cinerea in cucumber plants utilizing 0.1% chitosan and metal complexes.

Measured: toxicity to the plant

O=[N+]([O-])[O-].O=[N+]([O-])[O-].[Cu+2] [CuNO3]
toxic: [1]; 25 ppm metals | [1]; 50 ppm metals | [1]; 75 ppm metals | [2]; 25 ppm metals | [2]; 50 ppm metals | [2]; 75 ppm metals | [3]; 35 ppm metals | [3]; 50 ppm metals
